Experimental data taken from the supplement of paper PMC11061612.

How the values were obtained:
Experiment in all cases: Bliss excess, mean over the matrix (fraction); higher = more synergy
[1] = test system: HSC-4 (Oral Cavity Carcinoma)
Procedure, shortened: (§1)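 Cell lines in DMEM/F12 or RPMI with 10% FBS were plated in 1536-well plates, held 24 hours at 37°C, 5% CO2, then given two-drug dose matrices for 72 hours (DMSO typically 0.2%). Viability was read by CellTiter-Glo 2.0 luminescence and scaled as inhibition from 0 (vehicle wells) to 1 (blank wells). Combination Emax is the second-highest inhibition in the matrix; Bliss excess is observed combination effect minus expected EA + EB − EA·EB, EA and EB being single-agent effects.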

[2] = test system: MLMA (Other Blood Carcinomas)
Procedure, shortened: as §1

PWR-1E (Non-Cancerous) = test system: PWR-1E (Non-Cancerous)
Procedure, shortened: as §1

[3] = test system: EoL-1-cell (Acute Myeloid Leukemia)
Procedure, shortened: as §1

UACC-62 (Melanoma) = test system: UACC-62 (Melanoma)
Procedure, shortened: as §1

[4] = test system: SCC-15 (Oral Cavity Carcinoma)
Procedure, shortened: as §1

[5] = test system: C-4-I (Cervical Carcinoma)
Procedure, shortened: as §1

[6] = test system: KYSE-450 (Esophageal Squamous Cell Carcinoma)
Procedure, shortened: as §1

[7] = test system: KARPAS-299 (T-Cell Non-Hodgkin's Lymphoma)
Procedure, shortened: as §1

[8] = test system: OE19 (Esophageal Adenocarcinoma)
Procedure, shortened: as §1

[9] = test system: TE-1 (Esophageal Squamous Cell Carcinoma)
Procedure, shortened: as §1

[10] = test system: BT-549 (Breast Carcinoma)
Procedure, shortened: as §1

[11] = test system: OVCAR-4 (Ovarian Carcinoma)
Procedure, shortened: as §1

[12] = test system: PANC-04-03 (Pancreatic Carcinoma)
Procedure, shortened: as §1

ACHN (Kidney Carcinoma) = test system: ACHN (Kidney Carcinoma)
Procedure, shortened: as §1

TK10 (Kidney Carcinoma) = test system: TK10 (Kidney Carcinoma)
Procedure, shortened: as §1

[13] = test system: KMOE-2 (Acute Myeloid Leukemia)
Procedure, shortened: as §1

[14] = test system: MIA-PaCa-2 (Pancreatic Carcinoma)
Procedure, shortened: as §1

[15] = test system: LU-65 (Non-Small Cell Lung Carcinoma)
Procedure, shortened: as §1

[16] = test system: VA-ES-BJ (Other Solid Carcinomas)
Procedure, shortened: as §1

Row | SMILES | Bliss excess [1] | Bliss excess [2] | Bliss excess (PWR-1E (Non-Cancerous)) | Bliss excess [3] | Bliss excess (UACC-62 (Melanoma)) | Bliss excess [4] | Bliss excess [5] | Bliss excess [6] | Bliss excess [7] | Bliss excess [8] | Bliss excess [9] | Bliss excess [10] | Bliss excess [11] | Bliss excess [12] | Bliss excess (ACHN (Kidney Carcinoma)) | Bliss excess (TK10 (Kidney Carcinoma)) | Bliss excess [13] | Bliss excess [14] | Bliss excess [15] | Bliss excess [16]
1 | COc1nnc2ccc(N3CCC(c4ccc(OCCN5CCN(C)C(=O)[C@H]5C)cc4)CC3)nn12 [AZD5153] + Cn1cnc2c(F)c(Nc3ccc(Br)cc3Cl)c(C(=O)NOCCO)cc21 [Selumetinib] (first compound max 1 µM, 7x7, partner max 10 µM) | -0.0246 | -0.0447 | -0.0044 | 0.0345 | 0.0397 | 0.032 | 0.0398 | 0.025 | 0.0528 | -0.02 | 0.0111 | -0.0019 | -0.0214 | -0.0358 | 0.0033 | 0.0204 | 0.0402 | -0.0371 | 0.031 | -0.0155
2 | Cn1cnc2c(F)c(Nc3ccc(Br)cc3Cl)c(C(=O)NOCCO)cc21 [Selumetinib] + C[C@@H]1COCCN1C2=NC(=NC(=C2)C3(CC3)[S@](=N)(=O)C)C4=C5C=CNC5=NC=C4 [AZD6738] (first compound max 10 µM, 7x7, partner max 10 µM) | 0.0345 | -0.106 | -0.0381 | 0.0058 | 0.063 | -0.0142 | 0.0615 | 0.0046 | -0.013 | -0.049 | -0.0229 | -0.0936 | 0.0169 | 0.0023 | -0.0415 | -0.0373 | 0.0544 | 0.0499 | -0.0244 | -0.0714
3 | C=CCn1c(=O)c2cnc(Nc3ccc(N4CCN(C)CC4)cc3)nc2n1-c1cccc(C(C)(C)O)n1 [AZD1775] + C[C@@H]1COCCN1C2=NC(=NC(=C2)C3(CC3)[S@](=N)(=O)C)C4=C5C=CNC5=NC=C4 [AZD6738] (first compound max 1 µM, partner max 10 µM) | -0.0155 | -0.0079 | 0.0106 | 0.0033 | 0.0163 | -0.0216 | 0.0088 | 0.0809 | 0.0169 | 0.0514 | -0.0395 | 0.0107 | 0.0352 | -0.025 | -0.0184 | -0.0896 | 0.0308 | 0.12 | 0.0327 | 0.0568
4 | COc1nnc2ccc(N3CCC(c4ccc(OCCN5CCN(C)C(=O)[C@H]5C)cc4)CC3)nn12 [AZD5153] + C[C@@H]1COCCN1C2=NC(=NC(=C2)C3(CC3)[S@](=N)(=O)C)C4=C5C=CNC5=NC=C4 [AZD6738] (first compound max 1 µM, 7x7, partner max 10 µM) | -0.0215 | -0.111 | 0.0015 | -0.0066 | 0.0179 | 0.0084 | 0.0654 | 0.0295 | 0.0074 | -0.0416 | 0.019 | -0.0139 | 0.0127 | -0.008 | 0.0379 | -0.0406 | 0.0743 | 0.0077 | -0.0292 | 0.0315
5 | CC1(C)CCC(CN2CCN(c3ccc(C(=O)NS(=O)(=O)c4ccc(NCC5CCOCC5)c([N+](=O)[O-])c4)c(Oc4cnc5[nH]ccc5c4)c3)CC2)=C(c2ccc(Cl)cc2)C1 [Venetoclax] + Cn1cnc2c(F)c(Nc3ccc(Br)cc3Cl)c(C(=O)NOCCO)cc21 [Selumetinib] (first compound max 1 µM, 7x7, partner max 3 µM) | -0.0211 | 0.0401 | -0.0327 | 0.158 | -0.0235 | -0.0428 | -0.0299 | -0.0432 | -0.0102 | -0.0484 | 0.0008 | -0.0691 | -0.02 | -0.0633 | -0.0151 | -0.109 | -0.0168 | -0.0073 | -0.0153 | -0.0473
6 | Cc1c2c(nn1C)CSCc1cc(n(C)n1)CSc1cc(c3ccccc3c1)OCCCc1c(C(=O)O)n(C)c3c-2c(Cl)ccc13 [AZD5991] + Cn1cnc2c(F)c(Nc3ccc(Br)cc3Cl)c(C(=O)NOCCO)cc21 [Selumetinib] (first compound max 1 µM, 7x7, partner max 3 µM) | -0.0175 | 0.0463 | -0.0294 | 0.0751 | -0.0465 | 0.0241 | 0.132 | 0.0036 | 0.0496 | 0.0051 | 0.019 | 0.0056 | 0.0473 | 0.0201 | 0.0314 | 0.0135 | -0.0227 | 0.0197 | 0.03 | 0.0207
